Data on 19 compounds can be found in patent publication US20240116910A1, “Heterocycles as WIP1 Inhibitors” (PMV Pharmaceuticals, Inc., priority 2022, published 2024).

The assay deals with recombinant His-tag Wip1(2-420) protein (amino acids #2-420) (Homo sapiens (Human), UniProt O15297). Kind of assay: Wip1(2-420) phosphatase enzyme FDP assay. The assay is classed as biochemical. As to conditions: fluorescein diphosphate (FDP) substrate, RT 2 hours, fluorescence Ex485/Em535; read-out: WIP1 (Truncated 2-420) FDP Assay: IC50.
Chain of recombinant His-tag Wip1(2-420) protein (amino acids #2-420) (O15297 2-420): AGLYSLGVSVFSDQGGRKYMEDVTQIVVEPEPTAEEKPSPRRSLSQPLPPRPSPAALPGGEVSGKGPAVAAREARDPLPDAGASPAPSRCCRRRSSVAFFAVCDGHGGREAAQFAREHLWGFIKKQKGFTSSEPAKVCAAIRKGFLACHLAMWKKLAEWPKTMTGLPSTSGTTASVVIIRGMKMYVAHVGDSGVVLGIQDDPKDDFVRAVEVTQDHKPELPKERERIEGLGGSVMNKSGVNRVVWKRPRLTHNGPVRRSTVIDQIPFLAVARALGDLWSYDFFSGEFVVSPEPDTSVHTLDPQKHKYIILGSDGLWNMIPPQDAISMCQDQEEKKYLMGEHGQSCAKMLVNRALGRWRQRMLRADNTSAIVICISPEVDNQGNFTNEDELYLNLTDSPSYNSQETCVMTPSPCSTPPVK
Take `Cc1ncc(Cl)cc1N[C@@H](C)c1ccc(C(=O)N[C@@H](CC2CCCC2)C(=O)Nc2cnn(CCF)c2)s1` [Compound 141, (2S)-2-({5-[(1S)-1-[(5-chloro-2-methylpyridin-3-yl)amino]ethyl]thiophen-2-yl}formamido)-3-cyclopentyl-N-[1-(2-fluoroethyl)-1H-pyrazol-4-yl]propanamide]: the IC50 (in general, the concentration that gives 50% inhibition) is 5 nM.

On to `Cc1ncc(Cl)cc1N[C@@H](C)c1ccc(C(=O)N[C@@H](CC2CCCC2)C(=O)N[C@H]2C[C@@H](C)C2)s1` [Compound 99, (2S)-2-({5-[(1S)-1-[(5-chloro-2-methylpyridin-3-yl)amino]ethyl]thiophen-2-yl}formamido)-3-cyclopentyl-N-[(1r,3s)-3-methylcyclobutyl]propanamide], for which the IC50 was determined as 7 nM.

Turning to `Cc1ncc(Cl)cc1N[C@@H](C)c1ccc(C(=O)N[C@@H](CC2CCCC2)C(=O)NC2CCC2C)s1` (stereo partly drawn) [Compound 88, (2S)-2-({5-[(1S)-1-[(5-chloro-2-methylpyridin-3-yl)amino]ethyl]thiophen-2-yl}formamido)-3-cyclopentyl-N-(2-methylcyclobutyl)propanamide], the half-maximal inhibitory concentration (IC50) worked out at 6 nM.

Turning to `Cc1ncc(Cl)cc1NC(Cc1ccccc1)c1ccc(C(=O)N[C@@H](CC2CCCC2)C(=O)NC23CC(F)(C2)C3)s1` (stereo partly drawn) [Compound 212, (2S)-2-[(5-{1-[(5-chloro-2-methylpyridin-3-yl)amino]-2-phenylethyl}thiophen-2-yl)formamido]-3-cyclopentyl-N-{3-fluorobicyclo[1.1.1]pentan-1-yl}propanamide], the IC50 turned out to be 23 nM.

As for `CC(Nc1cc(Cl)cnc1C(C)(C)O)c1ccc(C(=O)N[C@@H](CC2CCCC2)C(=O)NC2CC2)s1` (stereo partly drawn) [Compound 203, (2S)-2-{[5-(1-{[5-chloro-2-(2-hydroxypropan-2-yl)pyridin-3-yl]amino}ethyl)thiophen-2-yl]formamido}-3-cyclopentyl-N-cyclopropylpropanamide], the IC50 was 17 nM.

As to `Cc1cccc(NC(=O)[C@H](CC2CCCC2)NC(=O)c2ccc([C@H](C)Nc3cc(Cl)cnc3C)s2)n1` [Compound 86], the IC50 came to 8 nM.

As to `COCc1ncc(Cl)cc1N[C@@H](C)c1ccc(C(=O)N[C@@H](CC2CCCC2)C(=O)NC2CC2)s1` [Compound 226, (2S)-2-({5-[(1S)-1-{[5-chloro-2-(methoxymethyl)pyridin-3-yl]amino}ethyl]thiophen-2-yl}formamido)-3-cyclopentyl-N-cyclopropylpropanamide], the IC50 was 11 nM.

As for `Cc1ncc(Cl)cc1N[C@@H](C)c1ccc(C(=O)N[C@@H](CC2CCCC2)C(=O)Nc2cnn(C3COC3)c2)s1` [Compound 144, (2S)-2-({5-[(1S)-1-[(5-chloro-2-methylpyridin-3-yl)amino]ethyl]thiophen-2-yl}formamido)-3-cyclopentyl-N-[1-(oxetan-3-yl)-1H-pyrazol-4-yl]propanamide], the IC50 came out at 6 nM.

In the case of `Cc1ncc(Cl)cc1N[C@@H](C)c1ccc(C(=O)N[C@@H](CC2CCCCC2)C(=O)NC23CC(C2)C3)s1` [Compound 109, (2S)-N-{bicyclo[1.1.1]pentan-1-yl}-2-({5-[(1S)-1-[(5-chloro-2-methylpyridin-3-yl)amino]ethyl]thiophen-2-yl}formamido)-3-cyclohexylpropanamide], the IC50 amounted to 8 nM.

Consider `C[C@H](Nc1cc(Cl)cnc1-c1cccc(Cl)c1)c1ccc(C(=O)N[C@@H](CC2CCCC2)C(=O)NC2CC2)s1` [Compound 231, (2S)-2-({5-[(1S)-1-{[5-chloro-2-(3-chlorophenyl)pyridin-3-yl]amino}ethyl]thiophen-2-yl}formamido)-3-cyclopentyl-N-cyclopropylpropanamide], for which the IC50 was 8 nM.

With `C[C@@H](c1ccc(C(=O)N[C@@H](CC2CCCC2)C(=O)NC2CC2)s1)N(C)c1cncc(Cl)c1` [Compound 89, (2S)-2-({5-[(1S)-1-[(5-chloropyridin-3-yl)(methyl)amino]ethyl]thiophen-2-yl}formamido)-3-cyclopentyl-N-cyclopropylpropanamide], the 50% inhibitory concentration (IC50) was found to be 102 nM.

`Cc1ncc(Cl)cc1N[C@H](C)c1ncc(C(=O)N[C@@H](CC2CCCC2)C(=O)NC2CC2)s1` [Compound 127, (2S)-2-({2-[(1R)-1-[(5-chloro-2-methylpyridin-3-yl)amino]ethyl]-1,3-thiazol-5-yl}formamido)-3-cyclopentyl-N-cyclopropylpropanamide]: the IC50 is 1550 nM.

Turning to `COc1cccc(-c2ncc(Cl)cc2N[C@@H](C)c2ccc(C(=O)N[C@@H](CC3CCCC3)C(=O)NC3CC3)s2)c1` [Compound 267, (2S)-2-({5-[(1S)-1-{[5-chloro-2-(3-methoxyphenyl)pyridin-3-yl]amino}ethyl]thiophen-2-yl}formamido)-3-cyclopentyl-N-cyclopropylpropanamide], the IC50 came out at 10 nM.

In the case of `Cc1ncc(Cl)cc1N[C@@H](C)c1ccc(C(=O)N[C@@H](CC2CCCC2)C(=O)Nc2ccc(C(N)=O)nc2)s1` [Compound 153, 5-[(2S)-2-({5-[(1S)-1-[(5-chloro-2-methylpyridin-3-yl)amino]ethyl]thiophen-2-yl}formamido)-3-cyclopentylpropanamido]pyridine-2-carboxamide], the IC50 came to 5 nM.

Consider `Cc1ncc(Cl)cc1N[C@H](c1ccc(C(=O)N[C@@H](CC2CCCC2)C(=O)NC2CC2)s1)C(F)(F)F` [Compound 185, (2S)-2-({5-[(1S)-1-[(5-chloro-2-methylpyridin-3-yl)amino]-2,2,2-trifluoroethyl]thiophen-2-yl}formamido)-3-cyclopentyl-N-cyclopropylpropanamide], for which the IC50 was determined as 61 nM.

Take `Cc1ncc(Cl)cc1N[C@@H](C)c1ccc(C(=O)N[C@@H](C[C@H]2CCC3C[C@@H]32)C(=O)NC2CC2)s1` (stereo partly drawn) [Compound 272, (2S)-3-[(2R)-bicyclo[3.1.0]hexan-2-yl]-2-({5-[(1S)-1-[(5-chloro-2-methylpyridin-3-yl)amino]ethyl]thiophen-2-yl}formamido)-N-cyclopropylpropanamide]: the 50% inhibitory concentration (IC50) came to 14 nM.

For the compound `C[C@H](Nc1cc(Cl)cnc1C(N)=O)c1ccc(C(=O)N[C@@H](CC2CCCC2)C(=O)NC23CC(C2)C3)s1` [Compound 133, 3-{[(1S)-1-(5-{[(1S)-1-({bicyclo[1.1.1]pentan-1-yl}carbamoyl)-2-cyclopentylethyl]carbamoyl}thiophen-2-yl)ethyl]amino}-5-chloropyridine-2-carboxamide], the IC50 was 4 nM.

`Cc1ncc(Cl)cc1NC(Cc1ccncc1)c1ccc(C(=O)N[C@@H](CC2CCCC2)C(=O)NC2CC2)s1` (stereo partly drawn) [Compound 130, (2S)-2-[(5-{1-[(5-chloro-2-methylpyridin-3-yl)amino]-2-(pyridin-4-yl)ethyl}thiophen-2-yl)formamido]-3-cyclopentyl-N-cyclopropylpropanamide]: the half-inhibitory concentration (IC50) amounted to 22 nM.

`Cc1ncc(Cl)cc1N[C@@H](C)c1ccc(C(=O)N[C@@H](CC2CCCCC2)C(=O)N[C@H]2C[C@H](F)C2)s1` [Compound 108, (2S)-2-({5-[(1S)-1-[(5-chloro-2-methylpyridin-3-yl)amino]ethyl]thiophen-2-yl}formamido)-3-cyclohexyl-N-[(1r,3r)-3-fluorocyclobutyl]propanamide]: the IC50 is 5 nM.
